US20100240537A1, “Substituted 6-(alkylbenzylamino)purine derivatives for use as cytokinin receptor antagonists and preparations containing these derivatives” (priority 2007, published 2010)

Tests used:
[1] = tested on: breast carcinoma cell line MCF-7; test: Calcein AM cytotoxicity assay, MCF-7; type: cell-based, human; details: Homo sapiens, MCF7, 72 hours
Text: (§1) Absence of toxic effects against mammalian (especially human) cell lines in a wide concentration range is one of the requirements on compounds intended for use in agriculture. Because toxic compounds negatively influence metabolic processes in cells, many standard cytotoxicity assays are based on measurement of metabolisation rate of various artificial substrates. Resulting product is then quantified e.g. by means of spectrometry. The assays can be easily modified for use in 96-well plates. For evaluation of cytotoxic effect of the novel substituted 6-(alkylbenzylamino)purine derivatives of this invention, a microtiter assay based on quantification of metabolisation of Calcein AM was used. The assay is widely used in drug screening programs and in chemosensitivity testing. In live cells, Calcein AM is enzymatically hydrolysed and accumulation of resulting calcein is manifested by green fluorescence.
(§2) The cells were maintained in Nunc/Corning 80 cm^2 plastic tissue culture flasks and cultured in cell culture medium (DMEM with 5 g/l glucose, 2 mM glutamine, 100 U/ml penicillin, 100 μg/ml streptomycin, 10% fetal calf serum and sodium bicarbonate).
(§3) The cell suspensions were prepared and diluted according to the particular cell type and the expected target cell density (10^4 cells per well based on cell growth characteristics) and pippetted (80 μl) into 96-well plates. Inoculates were allowed a pre-incubation period of 24 hours at 37° C., 100% humidity and 5% CO2 for stabilisation. Tested compounds were added in total volume of 20 μl of water at time zero. Usually, test compound was evaluated at six 3-fold dilutions. In routine testing, the highest concentration tested was 100 μM, the eventual changes depended on physico-chemical characteristics of the respective compound. All drug concentrations were tested in triplicates. Incubations of cells with the test compounds lasted for 72 hours at 37° C., in 5% CO2 atmosphere and 100% humidity. At the end of incubation period Calcein AM (Molecular Probes) in PBS was added into final concentration of 1 μg/ml. After another 1 hour of incubation fluorescence (FD) was measured with the Labsystem FIA Reader Fluoroscan Ascent (UK). Growth inhibition (GI) was estimated using the following equitation: GI=(mean FDdrug exposed wells−mean FDblank)/(mean FDcontrol wells−mean FDblank)×100%.

[2] = tested on: erytroid leukemia cell line K-562; test: Calcein AM cytotoxicity assay, K-562; type: cell-based, human; details: Homo sapiens, K562, 72 hours
Text: as §1, §2, §3

[3] = tested on: human diploid fibroblasts BJ; test: Calcein AM cytotoxicity assay, BJ; type: cell-based; details: Homo sapiens, Fibroblast, 72 hours
Text: as §1, §2, §3

[4] = tested on: cytokinin-dependent tobacco callus Nicotiana tabacum L. cv. Wisconsin 38; test: Cytokinin-dependent tobacco callus bioassay; type: cell-based; details: for activity (%) [10^−6 mol · l^−1 BA = 100%]: at concentration with highest activity, n.a. means inactive; for concentration with highest activity: callus fresh weight after four weeks
Procedure: Stimulatory effect of newly prepared derivatives was tested using cytokinin-dependent tobacco callus. The cytokinin-dependent tobacco callus Nicotiana tabacum L. cv. Wisconsin 38 was maintained at 25° C. in darkness on modified MS medium, containing per 1 liter: 4 μmol of nicotinic acid, 2.4 μmol of pyridoxine hydrochloride, 1.2 μmol of thiamine, 26.6 μmol of glycine, 1.37 μmol of glutamine, 1.8 μmol of myo-inositol, 30 g of sucrose, 8 g of agar, 5.37 μmol of NAA and 0.5 μmol of the compound tested. Subcultivation was carried out every three weeks. Fourteen days before the bioassay, the callus tissue was transferred to the media without 6-benzylaminopurine. The biological activity was determined from the increase of the fresh callus weight after four weeks of cultivation. Five replicates were prepared for each concentration of the compound tested and the entire test was repeated twice. […] The compounds to be tested were dissolved in dimethylsulfoxide (DMSO) and the solution brought up to 10^−3M with distilled water. This stock solution was further diluted with the respective media used for the biotest to a concentration ranging from 10^−8M to 10^−4M.
From the obtained data, the concentration with the highest activity was selected for each compound tested. Relative activity of the compound at this concentration was calculated (Table 3). The activity obtained for 10^−6 M of the control substance 6-benzylaminopurine was postulated as 100% biological activity. […]

[5] = tested on: osteosarcoma cell line HOS; test: Calcein AM cytotoxicity assay, HOS; type: cell-based, human; details: Homo sapiens, 72 hours
Text: as §1, §2, §3

c1ccc(CNc2ncnc3nc[nH]c23)cc1 [6-(benzylamino)purine]
GI50 [1]: > 100 µM | GI50 [2]: > 100 µM | GI50 [3]: > 100 µM | activity (%) [10^−6 mol · l^−1 BA = 100%] [4]: 100% | concentration with highest activity [4]: 10^−6 mol.l^−1 | GI50 [5]: > 100 µM

Cc1cccc(CNc2ncnc3nc[nH]c23)c1O [Compound 8, 6-(2-hydroxy-3-methylbenzylamino)purine]
GI50 [1]: > 50 µM | GI50 [2]: > 50 µM | GI50 [3]: > 50 µM | activity (%) [10^−6 mol · l^−1 BA = 100%] [4]: 2 (±2) % | concentration with highest activity [4]: 10^−4 mol.l^−1 | GI50 [5]: > 50 µM

Cc1ccc(O)c(CNc2ncnc3nc[nH]c23)c1 [Compound 10, 6-(2-hydroxy-5-methylbenzylamino)purine]
GI50 [1]: > 100 µM | GI50 [2]: > 100 µM | GI50 [3]: > 100 µM | activity (%) [10^−6 mol · l^−1 BA = 100%] [4]: 35 (±8) % | concentration with highest activity [4]: 10^−4 mol.l^−1 | GI50 [5]: > 100 µM
